Test system: C57/BL6J mice
Assay: In vivo plasma GLP-1 level-increasing action: plasma active GLP-1 level (ELISA) after oral administration
Conditions: 10 mg/kg oral; for Significant difference (p < 0.05) vs control group, plasma active GLP-1 level: 30 minutes, Student's t-test; for Plasma active GLP-1 level (relative value to control group as 100), average value: blood 30 minutes after, 0.5% CMC-Na group = 100
Procedure: Seven-week-old male C57/BL6J mice were purchased from CLEA Japan, Inc. for use, and they were subjected to an experiment after 1 week of a habituation period.
After the habituation period, the mice were subjected to 5.5 hours of food deprivation and 2 hours of water deprivation. Thereafter, a cyclic dipeptide dissolved or suspended in a 0.5% CMC-Na aqueous solution in 10 mg/kg was orally administered to each mouse forcibly. After 30 minutes, the blood was collected from the abdominal vena cava under anesthesia, and 1 μL of heparin sodium and 1 μL of 10 mM Sitagliptin phosphate were added to each collected blood, which was then subjected to centrifugation at 8000 rpm for 10 minutes to recover the plasma, and the plasma active GLP-1 level was measured by using the ELISA kit. In the analysis, the active GLP-1 level for a group administered with 0.5% CMC-Na aqueous solution was defined as 100, and relative values thereto were used.

| SMILES | Significant difference (p < 0.05) vs control group, plasma active GLP-1 level (Table 10, Experiment 5) | Plasma active GLP-1 level (relative value to control group as 100), average value (Table 10, Experiment 5) | Significant difference (p < 0.05) vs control group, plasma active GLP-1 level (Table 11, Experiment 6) | Plasma active GLP-1 level (relative value to control group as 100), average value (Table 11, Experiment 6) | further results |
| --- | --- | --- | --- | --- | --- |
| O=C(O)CCC1NC(=O)C(Cc2ccccc2)NC1=O (stereo not shown) [compound 53, Cyclo(Glu-Phe)] | No | 93 | – | – | – |
| CC(C)[C@@H]1NC(=O)[C@H](Cc2ccccc2)NC1=O [compound 54, Cyclo(Val-Phe)] | No | – | – | – | Significant difference (p < 0.05) vs control group, plasma active GLP-1 level (Table 6, Experiment 1): No |
| CCC(C)C1NC(=O)C(Cc2ccccc2)NC1=O (stereo not shown) [compound 55, Cyclo(Ile-Phe)] | No | 90 | – | – | – |
| CC(O)C1NC(=O)C(Cc2ccccc2)NC1=O (stereo not shown) [compound 56, Cyclo(Thr-Phe)] | No | 87 | – | – | – |
| CC(C)[C@@H]1NC(=O)[C@H](Cc2c[nH]c3ccccc23)NC1=O [compound 61, Cyclo(Trp-Val)] | – | – | – | – | Significant difference (p < 0.05) vs control group, plasma active GLP-1 level (Table 8, Experiment 3): No; Plasma active GLP-1 level (relative value to control group as 100), average value (Table 8, Experiment 3): 117 |
| CCC(C)C1NC(=O)C(Cc2c[nH]c3ccccc23)NC1=O (stereo not shown) [compound 62, Cyclo(Trp-Ile)] | – | – | – | – | Significant difference (p < 0.05) vs control group, plasma active GLP-1 level (Table 8, Experiment 3): No; Plasma active GLP-1 level (relative value to control group as 100), average value (Table 8, Experiment 3): 178 |
| NC(=O)CC1NC(=O)C(Cc2ccccc2)NC1=O (stereo not shown) [compound 64, Cyclo(Asn-Phe)] | No | 93 | – | – | – |
| CSCCC1NC(=O)C(Cc2ccccc2)NC1=O (stereo not shown) [compound 67, Cyclo(Met-Phe)] | No | 93 | – | – | – |
| CSCCC1NC(=O)C(CCCCN)NC1=O (stereo not shown) [compound 70, Cyclo(Met-Lys)] | No | 93 | – | – | – |
| CCC(C)C1NC(=O)C(CC(C)C)NC1=O (stereo not shown) [compound 71, Cyclo(Ile-Leu)] | – | – | No | 79 | – |
| CSCC[C@@H]1NC(=O)[C@H](CC(C)C)NC1=O [compound 72, Cyclo(Met-Leu)] | – | – | No | 90 | – |
| O=C1N[C@@H](Cc2c[nH]c3ccccc23)C(=O)N[C@H]1Cc1c[nH]c2ccccc12 [compound 75, cyclo-tryptophanyl-tryptophan] | – | – | – | – | Significant difference (p < 0.05) vs control group, plasma active GLP-1 level (Table 8, Experiment 3): Yes; Plasma active GLP-1 level (relative value to control group as 100), average value (Table 8, Experiment 3): 229 |
| CC1NC(=O)C(Cc2c[nH]c3ccccc23)NC1=O (stereo not shown) [compound 76, Cyclo(Trp-Ala)] | – | – | No | 110 | – |
| O=C(O)CCC1NC(=O)C(Cc2c[nH]c3ccccc23)NC1=O (stereo not shown) [compound 77, Cyclo(Trp-Glu)] | – | – | No | 110 | – |
| C[C@@H](O)[C@@H]1NC(=O)[C@H](Cc2c[nH]c3ccccc23)NC1=O [compound 79, Cyclo(Trp-Thr)] | – | – | No | 100 | – |
| NC(=O)CC1NC(=O)C(Cc2c[nH]c3ccccc23)NC1=O (stereo not shown) [compound 81, Cyclo(Trp-Asn)] | – | – | No | 100 | – |
| NC(=O)CC[C@@H]1NC(=O)[C@H](Cc2c[nH]c3ccccc23)NC1=O [compound 82, Cyclo(Trp-Gln)] | – | – | No | 90 | – |
| CSCCC1NC(=O)C(Cc2c[nH]c3ccccc23)NC1=O (stereo not shown) [compound 83, Cyclo(Trp-Met)] | – | – | No | 110 | – |
| O=C1NC(Cc2cnc[nH]2)C(=O)NC1Cc1ccc(O)cc1 (stereo not shown) [compound 85, Cyclo(His-Tyr)] | – | – | No | 90 | – |
| CC1NC(=O)C(Cc2ccc(O)cc2)NC1=O (stereo not shown) [compound 86, Cyclo(Ala-Tyr)] | – | – | No | 90 | – |
